Laboratory results taken from the supplement of paper PMC11451515.

Key:
Conditions in all cases: 48 h
[1] = system: P12-Ichikawa; assay: cell viability relative to DMSO control; higher = less cytotoxic
Summary of the method: (§1)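 NOMO1 or SEM (500 cells/well) or P12-Ichikawa (1000 cells/well) leukemia cells were adapted for at least four passages in each medium. They were seeded in 1536-well plates (5 μl) and pin-dosed with library compounds in DMSO over an 11-point threefold series, 47 μM to 0.79 nM. CellTiter-Glo One luminescence was read after 48 h at 37°C. Viability is the per-plate percentage relative to DMSO wells, with cell-free wells as background.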

[2] = system: NOMO1; assay: as above
Summary of the method: as §1

[3] = system: SEM cells; assay: as above
Summary of the method: as §1

[4] = system: P12-Ichikawa; assay: AUC of viability dose-response curve (% viability x log10 dose units); higher = less sensitive
Summary of the method: (§2)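 In 1536-well plates, leukemia cells adapted to each medium (500 or 1000 cells/well) were exposed for 48 h at 37°C to library compounds in DMSO across 11 threefold doses, 47 μM down to 0.79 nM. Viability was read by CellTiter-Glo One luminescence and normalised per plate to DMSO and cell-free wells. A four-parameter log-logistic fit over log10 doses was integrated by trapezoidal rule. This yielded the area under the curve, with over-full-viability curves scaled and quality-control failures dropped.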

[5] = system: NOMO1; assay: as above
Summary of the method: as §2

[6] = system: SEM cells; assay: as above
Summary of the method: as §2

[7] = HPLM + 10% dialyzed FBS, 0.000781 µM
[8] = HPLM + 10% dialyzed FBS, 0.00234 µM
[9] = HPLM + 10% dialyzed FBS, 0.00702 µM
[10] = HPLM + 10% dialyzed FBS, 0.0211 µM
[11] = HPLM + 10% dialyzed FBS, 0.0632 µM
[12] = HPLM + 10% dialyzed FBS, 0.19 µM
[13] = HPLM + 10% dialyzed FBS, 0.569 µM
[14] = HPLM + 10% dialyzed FBS, 1.71 µM
[15] = HPLM + 10% dialyzed FBS, 5.12 µM
[16] = HPLM + 10% dialyzed FBS, 15.4 µM
[17] = HPLM + 10% dialyzed FBS, 46.1 µM
[18] = RPMI 5 mM glucose + 10% FBS, 0.000781 µM
[19] = RPMI 5 mM glucose + 10% FBS, 0.00234 µM
[20] = RPMI 5 mM glucose + 10% FBS, 0.00702 µM
[21] = RPMI 5 mM glucose + 10% FBS, 0.0211 µM
[22] = RPMI 5 mM glucose + 10% FBS, 0.0632 µM
[23] = RPMI 5 mM glucose + 10% FBS, 0.19 µM
[24] = RPMI 5 mM glucose + 10% FBS, 0.569 µM
[25] = RPMI 5 mM glucose + 10% FBS, 1.71 µM
[26] = RPMI 5 mM glucose + 10% FBS, 5.12 µM
[27] = RPMI 5 mM glucose + 10% FBS, 15.4 µM
[28] = RPMI 5 mM glucose + 10% FBS, 46.1 µM
[29] = RPMI 5 mM glucose + 10% dialyzed FBS, 0.000781 µM
[30] = RPMI 5 mM glucose + 10% dialyzed FBS, 0.00234 µM
[31] = RPMI 5 mM glucose + 10% dialyzed FBS, 0.00702 µM
[32] = RPMI 5 mM glucose + 10% dialyzed FBS, 0.0211 µM
[33] = RPMI 5 mM glucose + 10% dialyzed FBS, 0.0632 µM
[34] = RPMI 5 mM glucose + 10% dialyzed FBS, 0.19 µM
[35] = RPMI 5 mM glucose + 10% dialyzed FBS, 0.569 µM
[36] = RPMI 5 mM glucose + 10% dialyzed FBS, 1.71 µM
[37] = RPMI 5 mM glucose + 10% dialyzed FBS, 5.12 µM
[38] = RPMI 5 mM glucose + 10% dialyzed FBS, 15.4 µM
[39] = RPMI 5 mM glucose + 10% dialyzed FBS, 46.1 µM
[40] = RPMI 5 mM glucose + 10% dialyzed FBS

Work on `O=C(O)c1ccc(-n2nc(-c3ccccc3O)nc2-c2ccccc2O)cc1` yielded a cell viability [1, 7] of 96.8%, a cell viability [1, 8] of 114% and a cell viability [1, 9] of 104%. The cell viability [1, 10] was 107%, the cell viability [1, 11] was 104% and the cell viability [1, 12] was 108%. It also gave a cell viability [1, 13] of 108%, a cell viability [1, 14] of 99.9% and a cell viability [1, 15] of 82%. It also gave a cell viability [1, 16] of 70%, a cell viability [1, 17] of 48.9% and a cell viability [1, 18] of 82.8%. For the same molecule, the cell viability [1, 19] was 94.8%, the cell viability [1, 20] was 107% and the cell viability [1, 21] was 99.8%. The cell viability [1, 22] was 102%, the cell viability [1, 23] was 104% and the cell viability [1, 24] was 101%. For the same molecule, the cell viability [1, 25] was 104%, the cell viability [1, 26] was 73.3% and the cell viability [1, 27] was 53.3%. The cell viability [1, 28] was 29.3%, the cell viability [1, 29] was 86.7% and the cell viability [1, 30] was 103%. For the same molecule, the cell viability [1, 31] was 105%, the cell viability [1, 32] was 96.2% and the cell viability [1, 33] was 95.5%. It also gave a cell viability [1, 34] of 102%, a cell viability [1, 35] of 102% and a cell viability [1, 36] of 96.7%. The cell viability [1, 37] was 79.7%, the cell viability [1, 38] was 55.7% and the cell viability [1, 39] was 22.2%. For the same molecule, the cell viability [2, 7] was 90%, the cell viability [2, 8] was 97.1% and the cell viability [2, 9] was 111%. It also gave a cell viability [2, 10] of 90.6%, a cell viability [2, 11] of 108% and a cell viability [2, 12] of 113%. The cell viability [2, 13] was 95.4%, the cell viability [2, 14] was 86.4% and the cell viability [2, 15] was 91.2%. For the same molecule, the cell viability [2, 16] was 74.7%, the cell viability [2, 17] was 44.4% and the cell viability [2, 18] was 94.9%. The cell viability [2, 19] was 92.5%, the cell viability [2, 20] was 93.5% and the cell viability [2, 21] was 94%. For the same molecule, the cell viability [2, 22] was 104%, the cell viability [2, 23] was 96.3% and the cell viability [2, 24] was 93.5%. For the same molecule, the cell viability [2, 25] was 103%, the cell viability [2, 26] was 96% and the cell viability [2, 27] was 90.5%. It also gave a cell viability [2, 28] of 29.8%, a cell viability [2, 29] of 94.3% and a cell viability [2, 30] of 103%. It also gave a cell viability [2, 31] of 96.4%, a cell viability [2, 32] of 89.2% and a cell viability [2, 33] of 87%. It also gave a cell viability [2, 34] of 88.4%, a cell viability [2, 35] of 89.5% and a cell viability [2, 36] of 94.3%. For the same molecule, the cell viability [2, 37] was 79.5%, the cell viability [2, 38] was 68% and the cell viability [2, 39] was 24.2%. It also gave a cell viability [3, 7] of 86.4%, a cell viability [3, 8] of 93% and a cell viability [3, 9] of 85.3%. The cell viability [3, 10] was 92%, the cell viability [3, 11] was 90.9% and the cell viability [3, 12] was 94.6%. The cell viability [3, 13] was 96.4%, the cell viability [3, 14] was 98% and the cell viability [3, 15] was 101%. It also gave a cell viability [3, 16] of 82.1%, a cell viability [3, 17] of 43% and a cell viability [3, 18] of 80.7%. For the same molecule, the cell viability [3, 19] was 76.6%, the cell viability [3, 20] was 86.7% and the cell viability [3, 21] was 86.8%. The cell viability [3, 22] was 100%, the cell viability [3, 23] was 96.9% and the cell viability [3, 24] was 93.3%. For the same molecule, the cell viability [3, 25] was 93.7%, the cell viability [3, 26] was 108% and the cell viability [3, 27] was 66%. It also gave a cell viability [3, 28] of 24.9%, a cell viability [3, 29] of 77.6% and a cell viability [3, 30] of 76%. For the same molecule, the cell viability [3, 31] was 91%, the cell viability [3, 32] was 98.1% and the cell viability [3, 33] was 95.5%. The cell viability [3, 34] was 108%, the cell viability [3, 35] was 102% and the cell viability [3, 36] was 102%. For the same molecule, the cell viability [3, 37] was 99.1%, the cell viability [3, 38] was 58.8% and the cell viability [3, 39] was 19.4%. For the same molecule, the “AUC of viability dose-response curve” value ([4]; HPLM + 10% dialyzed FBS) was 433, the “AUC of viability dose-response curve” value ([4]; RPMI 5 mM glucose + 10% FBS) was 422 and the “AUC of viability dose-response curve” value [4, 40] was 422. For the same molecule, the “AUC of viability dose-response curve” value ([5]; HPLM + 10% dialyzed FBS) was 441, the “AUC of viability dose-response curve” value ([5]; RPMI 5 mM glucose + 10% FBS) was 442 and the “AUC of viability dose-response curve” value [5, 40] was 408. For the same molecule, the “AUC of viability dose-response curve” value ([6]; HPLM + 10% dialyzed FBS) was 427, the “AUC of viability dose-response curve” value ([6]; RPMI 5 mM glucose + 10% FBS) was 408 and the “AUC of viability dose-response curve” value [6, 40] was 415.
